Measurements taken from patent US20240116985A1, “STAPLED PEPTIDES AND METHODS THEREOF” (priority 2020, published 2024).

These molecules were tested against T1, full-length beta-Catenin (Uniprot ID P35222) (Homo sapiens, UniProt P35222) (assay: Fluorescence polarization IC50 (beta-catenin / 5FAM-TCF4 10-53 competition)). Conditions: fluorescence polarization; read-out: beta-Catenin FP IC50.
T1 construct: 10 nM full-length beta-Catenin (Uniprot ID P35222)
T1 sequence (P35222 1-781): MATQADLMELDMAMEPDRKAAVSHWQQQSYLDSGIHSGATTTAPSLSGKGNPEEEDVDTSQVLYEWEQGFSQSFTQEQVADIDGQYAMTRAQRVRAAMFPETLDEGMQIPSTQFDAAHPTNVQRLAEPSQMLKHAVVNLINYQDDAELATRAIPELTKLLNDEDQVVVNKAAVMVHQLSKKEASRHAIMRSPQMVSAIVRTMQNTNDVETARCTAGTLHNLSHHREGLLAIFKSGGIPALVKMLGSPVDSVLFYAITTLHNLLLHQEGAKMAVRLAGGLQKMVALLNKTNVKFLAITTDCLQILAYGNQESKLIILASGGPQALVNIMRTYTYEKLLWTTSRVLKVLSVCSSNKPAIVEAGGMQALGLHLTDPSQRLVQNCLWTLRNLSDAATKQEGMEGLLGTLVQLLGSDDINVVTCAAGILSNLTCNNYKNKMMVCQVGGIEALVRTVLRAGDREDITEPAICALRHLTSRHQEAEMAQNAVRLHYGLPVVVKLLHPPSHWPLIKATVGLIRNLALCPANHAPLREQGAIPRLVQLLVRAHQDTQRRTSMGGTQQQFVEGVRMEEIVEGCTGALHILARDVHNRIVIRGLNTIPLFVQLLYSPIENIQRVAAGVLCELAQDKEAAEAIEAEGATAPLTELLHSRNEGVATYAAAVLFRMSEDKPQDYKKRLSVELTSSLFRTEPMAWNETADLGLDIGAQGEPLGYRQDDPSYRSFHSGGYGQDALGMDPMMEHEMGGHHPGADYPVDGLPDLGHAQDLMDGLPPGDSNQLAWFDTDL
Assay type: binding
`COC(=O)N1CCC[C@]12CC=CCCCC1(CCCC=CCCCOC(=O)N3CC[C@@](C(=O)N[C@@H](Cc4ccsc4)C(=O)N[C@@H](Cc4csc5ccccc45)C(=O)N[C@@H](Cc4c[nH]cn4)C(N)=O)(C3)NC(=O)[C@H](CCC(N)=O)NC(=O)[C@H](Cc3ccccc3)NC(=O)[C@H](C)NC(=O)[C@H](C)NC(=O)[C@H](CC(=O)O)NC(=O)[C@H](CC(=O)O)NC1=O)NC(=O)[C@H](CC(C)(C)C)NC(=O)[C@H](CC(=O)O)NC2=O` (stereo partly drawn) [I-2362, CO2Me-PL3-Asp-Npg-B5-Asp-Asp-Ala-Ala-Phe-Gln-PyrS2-3Thi-BztA-His-NH2] gave an IC50 of 0.066 µM. `CC(=O)N1CCC[C@]12CC=CCCCC1(CCCC=CCCCOC(=O)N3CC[C@@](C(=O)N[C@@H](Cc4ccsc4)C(=O)N[C@@H](Cc4csc5ccccc45)C(=O)N[C@@H](CCC(N)=O)C(N)=O)(C3)NC(=O)[C@H](CC(N)=O)NC(=O)[C@H](Cc3ccccc3)NC(=O)[C@H](C)NC(=O)[C@H](C)NC(=O)[C@H](CC(=O)O)NC(=O)[C@H](CC(=O)O)NC1=O)NC(=O)[C@H](CC(C)(C)C)NC(=O)[C@H](Cn1cc(CC(C)(C)C(=O)O)nn1)NC2=O` (stereo partly drawn) [I-2329, Ac-PL3-[CH2CMe2CO2H]TriAzDap-Npg-B5-Asp-Asp-Ala-Ala-Phe-Asn-PyrS2-3Thi-BztA-Gln-NH2] was tested, and the IC50 was 3.8 µM. Molecule `CCCc1cn(CCCC[C@H](NC(=O)[C@H](CO)NC(=O)[C@H](Cc2csc3ccccc23)NC(=O)[C@H](Cc2ccccc2C(F)(F)F)NC(=O)[C@]23CCN(C2)C(=O)OCCCC=CCCCC2(CCCC=CC[C@]4(CCCN4C(C)=O)C(=O)N[C@@H](CC(=O)O)C(=O)N[C@@H](CC(C)(C)C)C(=O)N2)C(=O)N[C@@H](CC(=O)O)C(=O)N[C@@H](Cc2cccc(C(=O)O)c2)C(=O)N[C@@H](C)C(=O)N[C@@H](C)C(=O)N[C@@H](Cc2ccccc2)C(=O)N[C@@H](CC(C)C)C(=O)N3)C(N)=O)nn1` (stereo partly drawn) [I-2432, Ac-PL3-Asp-Npg-B5-Asp-3COOHF-Ala-Ala-Phe-Leu-PyrS2-2F3MeF-BztA-Ser-[3C]TriAzLys-NH2] has an IC50 of 0.06 µM. In the case of `CC(=O)N1CCC[C@]12CC=CCCCC1(CCCC=CCCOC(=O)N3CC[C@@](C(=O)N[C@@H](Cc4ccccc4Cl)C(=O)N[C@@H](Cc4csc5ccccc45)C(=O)N[C@@H](C(N)=O)[C@H](C)O)(C3)NC(=O)[C@H](CC(N)=O)NC(=O)[C@H](Cc3ccccc3)NC(=O)[C@H](C)NC(=O)[C@H](C)NC(=O)[C@H](CC(=O)O)NC(=O)[C@H](CC(=O)O)NC1=O)NC(=O)[C@H](CC(C)(C)C)NC(=O)[C@H](CC(=O)O)NC2=O` (stereo partly drawn) [I-1256, Ac-PL3-Asp-Npg-B5-Asp-Asp-Ala-Ala-Phe-Asn-PyrS1-2C1F-BztA-dThr-NH2], the IC50 is reported as 1.47 µM. `CC(=O)N1CCC[C@]12CC=CCCCC1(CCCC=CCCCOC(=O)N3CC[C@@](C(=O)N[C@@H](Cc4ccsc4)C(=O)N[C@@H](Cc4csc5ccccc45)C(=O)N[C@@H](CCC(N)=O)C(N)=O)(C3)NC(=O)[C@H](CC(N)=O)NC(=O)[C@H](Cc3ccccc3)NC(=O)[C@H](C)NC(=O)[C@H](C)NC(=O)[C@H](CC(N)=O)NC(=O)[C@H](CC(C)C)NC1=O)NC(=O)[C@H](CC(C)(C)C)NC(=O)[C@H](CC(=O)O)NC2=O` (stereo partly drawn) [I-1563, Ac-PL3-Asp-Npg-B5-Leu-Asn-Ala-Ala-Phe-Asn-PyrS2-3Thi-BztA-Gln-NH2] gave an IC50 of 2.85 µM. Work on `CC(=O)N1CCC[C@H]1C(=O)N[C@@H](CC(=O)O)C(=O)N[C@@H](CC(C)(C)C)C(=O)N[C@]1(C)CCCCCCCCCOC(=O)N2CC[C@@](C(=O)N[C@@H](Cc3ccsc3)C(=O)N[C@@H](Cc3csc4ccccc34)C(=O)N[C@@H](CCC(N)=O)C(N)=O)(C2)NC(=O)[C@H](CC(C)C)NC(=O)[C@H](Cc2ccccc2)NC(=O)[C@H](C)NC(=O)[C@H](C)NC(=O)[C@H](CC(=O)O)NC(=O)[C@H](CC(=O)O)NC1=O` [I-1991, Ac-Pro-Asp-Npg-R6-Asp-Asp-Ala-Ala-Phe-Leu-PyrS2-3Thi-BztA-Gln-NH2] yielded an IC50 of 0.397 µM. Work on `CCC(C)N(CC(=O)O)C[C@@H]1NC(=O)[C@H](CC(=O)O)NC(=O)C2(CCCC=CCCCCCC[C@@](C)(C(=O)N[C@@H](Cc3ccsc3)C(=O)N[C@@H](Cc3csc4ccccc34)C(=O)N[C@@H](CCC(N)=O)C(N)=O)NC(=O)[C@H](CC(N)=O)NC(=O)[C@H](Cc3ccccc3)NC(=O)[C@H](C)NC(=O)[C@H](C)NC1=O)CCCC=CC[C@]1(CCCN1C(C)=O)C(=O)N[C@@H](CC(=O)O)C(=O)N[C@@H](CC(C)(C)C)C(=O)N2` (stereo partly drawn) [I-1626, Ac-PL3-Asp-Npg-B5-Asp-[sBu]GA-Ala-Ala-Phe-Asn-S8-3Thi-BztA-Gln-NH2] yielded an IC50 of 0.721 µM. `CC(=O)N1CCC[C@]12CC=CCCCC1(CCCC=CCCCOC(=O)N3CC[C@@](C(=O)N[C@@H](Cc4ccccc4C(F)(F)F)C(=O)N[C@@H](Cc4ccc5ccccc5c4)C(=O)N[C@@H](C)C(N)=O)(C3)NC(=O)[C@H](CC(C)C)NC(=O)[C@H](Cc3ccccc3)NC(=O)[C@H](C)NC(=O)[C@H](CCC(N)=O)NC(=O)[C@H](Cc3cccc(C(=O)O)c3)NC(=O)[C@H](CC(=O)O)NC1=O)NC(=O)[C@H](CC(C)(C)C)NC(=O)[C@H](CC(=O)O)NC2=O` (stereo partly drawn) [I-2461, Ac-PL3-Asp-Npg-B5-Asp-3COOHF-Gln-Ala-Phe-Leu-PyrS2-2F3MeF-2NapA-Ala-NH2] was tested, and the IC50 was 0.075 µM. In the case of `CC(=O)N1CCC[C@]12CC=CCCCC1(CCCC=CCCCOC(=O)N3CC[C@@](C(=O)N[C@@H](Cc4ccsc4)C(=O)N[C@@H](Cc4csc5ccccc45)C(=O)N[C@H](C(N)=O)[C@@H](C)O)(C3)NC(=O)[C@H](CC(N)=O)NC(=O)[C@H](Cc3ccccc3)NC(=O)[C@H](C)NC(=O)[C@H](C)NC(=O)[C@H]([C@@H](C)O)NC(=O)[C@H](CC(N)=O)NC1=O)NC(=O)[C@H](CC(C)(C)C)NC(=O)[C@H](CC(=O)O)NC2=O` (stereo partly drawn) [I-1745, Ac-PL3-Asp-Npg-B5-Asn-Thr-Ala-Ala-Phe-Asn-PyrS2-3Thi-BztA-Thr-NH2], the IC50 is reported as 0.402 µM. With `CC(=O)N1CCC[C@]12CC=CCCCC1(CCCC=CCCCOC(=O)N3CC[C@@](C(=O)N[C@@H](Cc4ccsc4)C(=O)N[C@@H](Cc4csc5ccccc45)C(=O)N[C@@H](CCC(N)=O)C(N)=O)(C3)NC(=O)[C@H](CC(N)=O)NC(=O)[C@H](Cc3ccccc3)NC(=O)[C@H](C)NC(=O)[C@H](C)NC(=O)[C@H]([C@@H](C)O)NC(=O)[C@H](CC(N)=O)NC1=O)NC(=O)[C@H](CC(C)(C)C)NC(=O)[C@H](CCCC(=O)O)NC2=O` (stereo partly drawn) [I-2133, Ac-PL3-Aad-Npg-B5-Asn-Thr-Ala-Ala-Phe-Asn-PyrS2-3Thi-BztA-Gln-NH2] the IC50 was 8.75 µM. `CC(=O)N1CC2CC1C(=O)N[C@@H](CC(=O)O)C(=O)N[C@@H](CC(C)(C)C)C(=O)NC1(CCCC=CCCCOC(=O)N3CC[C@@](C(=O)N[C@@H](Cc4ccsc4)C(=O)N[C@@H](Cc4csc5ccccc45)C(=O)N[C@@H](CCC(N)=O)C(N)=O)(C3)NC(=O)[C@H](CC(N)=O)NC(=O)[C@H](Cc3ccccc3)NC(=O)[C@H](C)NC(=O)[C@H](C)NC(=O)[C@H](CC(=O)O)NC(=O)[C@H](CC(=O)O)NC1=O)CCCC=CCC(=O)O2` (stereo partly drawn) [I-1575, Ac-HypEs4-Asp-Npg-B5-Asp-Asp-Ala-Ala-Phe-Asn-PyrS2-3Thi-BztA-Gln-NH2] was tested, and the IC50 was 0.079 µM. For `CC(=O)N1CCC[C@]12CCCCCC1(CCCCCCCCOC(=O)N3CC[C@@](C(=O)N[C@@H](Cc4ccsc4)C(=O)N[C@@H](Cc4csc5ccccc45)C(=O)N[C@@H](CCC(N)=O)C(N)=O)(C3)NC(=O)[C@H](CC(C)C)NC(=O)[C@H](Cc3ccccc3)NC(=O)[C@H](C)NC(=O)[C@H](C)NC(=O)[C@H](CC(=O)O)NC(=O)[C@H](CC(=O)O)NC1=O)NC(=O)[C@H](CC(C)(C)C)NC(=O)[C@H](CC(=O)O)NC2=O` (stereo partly drawn) [I-1976, Ac-PL3-Asp-Npg-B4-Asp-Asp-Ala-Ala-Phe-Leu-PyrS3-3Thi-BztA-Gln-NH2], the IC50 was 0.15 µM. With `CC(=O)N1CCC[C@]12CC=CCCCC1(CCCC=CCCCOC(=O)N3CC[C@@](C(=O)N[C@@H](Cc4ccsc4)C(=O)N[C@@H](Cc4csc5ccccc45)C(=O)N[C@@H](Cc4ccccc4)C(N)=O)(C3)NC(=O)[C@H]([C@@H](C)O)NC(=O)[C@H](Cc3ccccc3)NC(=O)[C@H](C)NC(=O)[C@H](C)NC(=O)[C@H]([C@@H](C)O)NC(=O)[C@H](CC(N)=O)NC1=O)NC(=O)[C@H](CC(C)(C)C)NC(=O)[C@H](CC(=O)O)NC2=O` (stereo partly drawn) [I-2145, Ac-PL3-Asp-Npg-B5-Asn-Thr-Ala-Ala-Phe-Thr-PyrS2-3Thi-BztA-Phe-NH2] the IC50 was 2.07 µM. `CC(=O)N1CCC[C@]12CCCCCCC1(CCCCCCCCOC(=O)N3CC[C@@](C(=O)N[C@@H](Cc4ccsc4)C(=O)N[C@@H](Cc4csc5ccccc45)C(=O)N[C@@H](CCC(N)=O)C(N)=O)(C3)NC(=O)[C@H](CC(N)=O)NC(=O)[C@H](Cc3ccccc3)NC(=O)[C@H](C)NC(=O)[C@H](C)NC(=O)[C@H](CC(=O)O)NC(=O)[C@H](CC(=O)O)NC1=O)NC(=O)[C@H](CC(C)(C)C)NC(=O)[C@H](CC(=O)O)NC2=O` (stereo partly drawn) [I-1987, Ac-PL3-Asp-Npg-B5-Asp-Asp-Ala-Ala-Phe-Asn-PyrS2-3Thi-BztA-Gln-NH2] was tested, and the IC50 was 0.054 µM.
